Experimental data: patent US20240092758A1, “IMIDAZOLO INDAZOLE COMPOUNDS AS JAK INHIBITORS” (Theravance Biopharma R&D IP, LLC, priority 2021, published 2024)

Experiment: Pharmacokinetics in plasma and lung in mouse after oral aspiration administration
Format: in vivo
Conditions: male CD1 mice; for Lung Tissue AUC(0-24) / AUC(0-t): 0.2 mg/mL, two 25 μL increments; for Lung Tissue:Plasma AUC ratio: lung AUC to plasma AUC; for AUC(0-t): mouse, inhaled or intranasal, 0.01 mg/mouse, plasma, read-out: Plasma AUC(0-24)
How it was run: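 Male CD1 mice given 0.2 mg/mL compound in 20% propylene glycol/pH 4 citrate buffer, two 25 μL increments by oral aspiration into the trachea under isoflurane. Plasma and lung homogenate sampled 0.167–24 hr and measured by LC-MS/MS. Non-compartmental analysis gave AUC(0-inf); lung-to-plasma ratio from lung (μg*hr/g) over plasma (μg*hr/mL) AUC.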

CCc1cc(O)ccc1-c1ccc2c(-c3nc(C4=CCNC4)c[nH]3)n[nH]c2c1F [Compound 1, 4-(3-(4-(2,5-dihydro-1H-pyrrol-3-yl)-1H-imidazol-2-yl)-7-fluoro-1H-indazol-6-yl)-3-ethylphenol]
Lung Tissue AUC(0-24): B (B denotes a value between 50 and 100) | Lung Tissue:Plasma AUC ratio: C (C denotes a ratio between 100 and 200) | AUC(0-t): 0.5 to 1 µg·h/mL

CCc1cc(O)ccc1-c1ccc2c(-c3nc(C4=CCNCC4)c[nH]3)n[nH]c2c1F [Compound 2, 3-ethyl-4-(7-fluoro-3-(4-(1,2,3,6-tetrahydropyridin-4-yl)-1H-imidazol-2-yl)-1H-indazol-6-yl)phenol]
Lung Tissue AUC(0-24): B (B denotes a value between 50 and 100) | Lung Tissue:Plasma AUC ratio: C (C denotes a ratio between 100 and 200) | AUC(0-t): 0.5 to 1 µg·h/mL

CCc1cc(O)ccc1-c1ccc2c(-c3nc(C4=CCNCC4)c[nH]3)n[nH]c2c1 [Compound 3, 3-ethyl-4-(3-(4-(1,2,3,6-tetrahydropyridin-4-yl)-1H-imidazol-2-yl)-1H-indazol-6-yl)phenol]
Lung Tissue AUC(0-24): A (For the Lung Tissue AUC(0-24), A denotes a value between 100 and 200) | Lung Tissue:Plasma AUC ratio: C (C denotes a ratio between 100 and 200) | AUC(0-t): 0.5 to 1 µg·h/mL
